According to patent publication US8980906B2, “Pyridonemorphinan analogs and biological activity on opioid receptors” (Purdue Pharma L.P., priority 2012, dated 2015):

Assays:
κ-opioid receptor [1] = biological target: T1, κ-opioid receptor (Homo sapiens (Human), UniProt P41145); test: κ-opioid receptor radioligand dose-displacement binding assay ([3H]-U69,593); settings: binding affinity, [3H]-U69,593 displacement
Method: κ-Opioid Receptor Binding Assay Procedures: Membranes from HEK-293 cells, CHO or U-2 OS cells expressing the recombinant human kappa opioid receptor (κ) were prepared by lysing cells in ice cold hypotonic buffer (2.5 mM MgCl2, 50 mM HEPES, pH 7.4) (10 mL/10 cm dish) followed by homogenization with a tissue grinder/Teflon pestle. Membranes were collected by centrifugation at 30,000×g for 15 min at 4° C. and pellets were resuspended in hypotonic buffer to a final concentration of 1-3 mg/mL. Protein concentrations were determined using the BioRad protein assay reagent with bovine serum albumen as standard, Aliquots of κ receptor membranes were stored at […].
Radioligand dose displacement assays used 0.4 nM [^3H]-U69,593 (GE Healthcare, Piscataway, N.J.; 40 Ci/mmole) with 15 μg membrane protein (recombinant κ opioid receptor expressed in HEK 293 cells; in-house prep) in a final volume of 200 μl binding buffer (5% DMSO, 50 mM Trizma base, pH 7.4). Non-specific binding was determined in the presence of 10 μM unlabeled naloxone or U69,593. All reactions were performed in 96-well polypropylene plates for 1 hour at a temperature of about 25° C. Binding reactions were terminated by rapid filtration onto 96-well Unifilter GF/C filter plates (Perkin Elmer, Shelton, Conn.) presoaked in 0.5% polyethylenimine (Sigma). Harvesting was performed using a 96-well tissue harvester (Perkin Elmer, Shelton, Conn.) followed by five filtration washes with 200 μl ice-cold binding buffer. Filter plates were subsequently dried at 50° C. for 1-2 hours. Fifty μl/well scintillation cocktail (Perkin Elmer, Shelton, Conn.) was added and plates were counted in a Packard Top-Count for 1 min/well.

κ-opioid receptor [2] = biological target: T1, κ-opioid receptor; test: κ-opioid receptor [35S]GTPγS functional assay, HEK-293 or CHO cells; assay type: biochemical; settings: for Emax: relative to U69,593, HEK-293 or CHO cells
Method: (§1) κ-Opioid Receptor Functional Assay Procedures: Functional [^35S]GTPγS binding assays were conducted as follows. κ opioid receptor membrane solution was prepared by sequentially adding final concentrations of 0.026 μg/μl κ membrane protein (in-house), 10 μg/mL saponin, 3 μM GDP and 0.20 nM [^35S]GTPγS to binding buffer (100 mM NaCl, 10 mM MgCl2, 20 mM HEPES, pH 7.4) on ice. The prepared membrane solution (190 μl/well) was transferred to 96-shallow well polypropylene plates containing 10 μl of 20× concentrated stock solutions of agonist prepared in DMSO. Plates were incubated for 30 min at a temperature of about 25° C. with shaking. Reactions were terminated by rapid filtration onto 96-well Unifilter GF/B filter plates (Perkin Elmer, Shelton, Conn.) using a 96-well tissue harvester (Packard) and followed by three filtration washes with 200 μl ice-cold binding buffer (10 mM NaH2PO4, 10 mM Na2HPO4, pH 7.4). Filter plates were subsequently dried at 50° C. for 2-3 hours. Fifty μl/well scintillation cocktail (Perkin Elmer, Shelton, Conn.) was added and plates were counted in a Packard Top-Count for 1 min/well.
(§2) κ-Opioid Receptor Functional Data: κ GTP EC50 is the concentration of a compound providing 50% of the maximal response for the compound at a κ receptor.
(§3) κ GTP Emax (%) is the maximal effect elicited by a compound relative to the effect elicited by U69,593.
(§4) In TABLE 2, activity response of certain Compounds of the Invention to the μ-, δ- and κ-opioid receptors was determined as described above for functional assays using HEK-293 or CHO cells.

μ-opioid receptor [3] = biological target: T2, μ-opioid receptor (Homo sapiens (Human), UniProt P35372); test: μ-opioid receptor [35S]GTPγS functional assay, HEK-293 or CHO cells; assay type: biochemical
Method: (§5) μ-Opioid Receptor Functional Assay Procedures: [^35S]GTPγS functional assays were conducted using freshly thawed μ-receptor membranes prepared in-house from a cell line expressing recombinant μ opioid receptor in a HEK-293, CHO or U-2 OS cell background, or purchased from a commercial source (Perkin Elmer, Shelton, Conn.; or DiscovRx, Fremont, Calif.). Assay reactions were prepared by sequentially adding the following reagents to binding buffer (100 mM NaCl, 10 mM MgCl2, 20 mM HEPES, pH 7.4) on ice (final concentrations indicated): membrane protein (0.026 mg/mL), saponin ([…]), GDP ([…]) and [^35S]GTPγS (0.20 nM; Perkin Elmer, Shelton, Conn.). The prepared membrane solution (190 μl/well) was transferred to 96-shallow well polypropylene plates containing 10 μl of 20× concentrated stock solutions of the agonist [D-Ala^2, N-methyl-Phe^4 Gly-ol^5]-enkephalin (DAMGO) prepared in dimethyl sulfoxide (DMSO). Plates were incubated for 30 min at about 25° C. with shaking. Reactions were terminated by rapid filtration onto 96-well Unifilter GF/B filter plates (Perkin Elmer, Shelton, Conn.) using a 96-well tissue harvester (Perkin Elmer, Shelton, Conn.) followed by three filtration washes with 200 μl of ice-cold wash buffer (10 mM NaH2PO4, 10 mM Na2HPO4, pH 7.4). Filter plates were subsequently dried at 50° C. for 2-3 hours. BetaScint scintillation cocktail (Perkin Elmer, Shelton, Conn.) was added (50 μl/well) and plates were counted using a Packard Top-Count for 1 min/well. Data were analyzed using the sigmoidal dose-response curve fitting functions in GraphPad PRISM v. 3.0, or an in-house function for non-linear, sigmoidal dose-response curve-fitting.
(§6) μ-Opioid Receptor Functional Data: μ GTP EC50 is the concentration of a compound providing 50% of the maximal response for the compound at a μ-opioid receptor.
(§7) μ GTP Emax (%) is the maximal effect elicited by a compound relative to the effect elicited by DAMGO, a standard μ agonist. Generally, the μ GTP Emax (%) value measures the efficacy of a compound to treat or prevent pain or other Conditions.
as §4

μ-opioid receptor [4] = biological target: T2, μ-opioid receptor; test: μ-opioid receptor [35S]GTPγS functional assay, U-2 OS cells; assay type: biochemical; settings: for Emax: relative to DAMGO, U-2 OS cells
Method: as §5, §6, §7
(§8) The following TABLE 3 provides results on the activity response of certain Compounds of the Invention at the μ- and κ-opioid receptors determined as described above using U-2 OS cells.

κ-opioid receptor [5] = biological target: T1, κ-opioid receptor; test: κ-opioid receptor [35S]GTPγS functional assay, U-2 OS cells; assay type: biochemical; settings: for Emax: relative to U69,593, U-2 OS cells
Method: as §1, §2, §3, §8

Row | Structure (SMILES) | Ki (κ-opioid receptor [1]) | EC50 (κ-opioid receptor [2]) | Emax (κ-opioid receptor [2]) | EC50 (μ-opioid receptor [3]) | EC50 (μ-opioid receptor [4]) | Emax (μ-opioid receptor [4]) | EC50 (κ-opioid receptor [5]) | Emax (κ-opioid receptor [5]) | Emax (μ-opioid receptor [3]; relative to DAMGO, HEK-293 or CHO cells)
1 | COC(=O)c1cc2c([nH]c1=O)C[C@]13CCN(CC4CC4)[C@H](Cc4ccc(OC)cc41)[C@]3(O)C2 [Compound 2, (6R,6a,S,12aR)-methyl 15-(cyclopropylmethyl)-6a-hydroxy-2-dimethoxy-10-oxo-6,6a,7,10,11,12-hexahydro-5H-6,12a-(epiminoethano)naphtho[2,1-g]quinoline-9-carboxylate] | 37.6 ± 4.75 nM | 594 ± 87 nM | 37.5 ± 2.25% | > 20000 nM | – | – | – | – | –
2 | COc1ccc2c(c1)[C@]13CCN(CC4CC4)[C@H](C2)[C@]1(O)Cc1cc(C(=O)NCC(N)=O)c(=O)[nH]c1C3 [Compound 13, (6R,6aS,12aR)—N-(2-amino-2-oxoethyl)-15-(cyclopropylmethyl)-6a-hydroxy-2-methoxy-10-oxo-6,6a,7,10,11,12-hexahydro-5H-6,12a-(epiminoethano)naphtho[2,1-g]quinoline-9-carboxamide] | 467 ± 173 nM | – | – | – | – | – | – | – | –
3 | CC(C)C[C@H](NC(=O)c1cc2c([nH]c1=O)C[C@]13CCN(CC4CC4)[C@H](Cc4ccc(O)cc41)[C@]3(O)C2)C(N)=O [Compound 18, (6R,6aS,12aR)—N—((S)-1-amino-4-methyl-1-oxopentan-2-yl)-15-(cyclopropylmethyl)-2,6a-dihydroxy-10-oxo-6,6a,7,10,11,12-hexahydro-5H-6,12a-(epiminoethano)naphtho[2,1-g]quinoline-9-carboxamide] | 1.09 ± 0.05 nM | > 20000 nM | – | – | – | – | – | – | –
4 | NC(=O)c1cc2c([nH]c1=O)C[C@]13CCN(CCc4ccccc4)[C@H](Cc4ccc(O)cc41)[C@]3(O)C2 [Compound 37, (6R,6aS,12aR)-2,6a-dihydroxy-10-oxo-15-phenethyl-6,6a,7,10,11,12-hexahydro-5H-6,12a-(epiminoethano)naphtho[2,1-g]quinoline-9-carboxamide] | – | > 20000 nM | 2.5% | 268 ± 53.1 nM | 72.7 ± 3.87 nM | 71.3 ± 0.33% | 374 ± 93.5 nM | 11.3 ± 1.45% | 98 ± 4.62%
5 | CN1CC[C@]23Cc4[nH]c(=O)c(C(=O)N5CCCC5)cc4C[C@@]2(O)[C@H]1Cc1ccc(O)cc13 [Compound 48, (6R,6aS,12aR)-2,6a-dihydroxy-15-methyl-9-(pyrrolidine-1-carbonyl)-6a,7,11,12-tetrahydro-5H-6,12a-(epiminoethano)naphtho[2,1-g]quinolin-10(6H)-one] | – | – | – | – | 97.4 ± 4.35 nM | 82.7 ± 0.88% | 226 ± 4.41 nM | 90.3 ± 5.46% | –
6 | CC(C)CCNC(=O)c1cc2c([nH]c1=O)C[C@]13CCN(C)[C@H](Cc4ccc(O)cc41)[C@]3(O)C2 [Compound 49, (6R,6aS,12aR)-2,6a-dihydroxy-N-isopentyl-15-methyl-10-oxo-6,6a,7,10,11,12-hexahydro-5H-6,12a-(epiminoethano)naphtho[2,1-g]quinoline-9-carboxamide] | – | – | – | – | 445 ± 63.8 nM | 80 ± 3.61% | 204 ± 68.1 nM | 63 ± 1.73% | –
7 | C[C@H](NC(=O)c1cc2c([nH]c1=O)C[C@]13CCN(C)[C@H](Cc4ccc(O)cc41)[C@]3(O)C2)C(N)=O [Compound 50, (6R,6aS,12R)—N—((S)-1-amino-1-oxopropan-2-yl)-26a-dihydroxy-15-methyl-10-oxo-6,6a,7,10,11,12-hexahydro-5H-6,12a-(epiminoethano)naphtho[2.1-g]quinoline-9-carboxamide] | – | – | – | – | 204 ± 11.3 nM | 95 ± 1.15% | 1070 ± 157 nM | 54 ± 2.74% | –
8 | CN1CC[C@]23Cc4[nH]c(=O)c(C(=O)N[C@@H](Cc5ccccc5)C(N)=O)cc4C[C@@]2(O)[C@H]1Cc1ccc(O)cc13 [Compound 51, (6R,6aS,12R)—N—((S)-1-amino-1-oxo-3-phenylpropan-2-yl)-2,6a-dihydroxy-15-methyl-10-oxo-6,6a,7,10,11,12-hexahydro-5H-6,12a-(epiminoethano)naphtho[2.1-g]quinoline-9-carboxamide] | – | – | – | – | 126 ± 14.3 nM | 97.7 ± 1.45% | 488 ± 79.4 nM | 39.3 ± 3.84% | –
9 | CC(C)C[C@H](NC(=O)c1cc2c([nH]c1=O)C[C@]13CCN(C)[C@H](Cc4ccc(O)cc41)[C@]3(O)C2)C(N)=O [Compound 52, (6R,6aS,12R)—N—((S)-1-amino-4-methyl-1-oxopentan-2-yl)-2,6a-dihydroxy-15-methyl-10-oxo-6,6a,7,10,11,12-hexahydro-5H-6,12a-(epiminoethano)naphtho[2.1-g]quinoline-9-carboxamide] | – | – | – | – | 244 ± 10.8 nM | 97.7 ± 1.45% | 3790 ± 1570 nM | 28.8 ± 2.17% | –
10 | CN1CC[C@]23Cc4[nH]c(=O)c(C(=O)N5CCC[C@H]5C(N)=O)cc4C[C@@]2(O)[C@H]1Cc1ccc(O)cc13 [Compound 53, (S)-1-((6R,6aS,12R)-2,6a-dihydroxy-15-methyl-10-oxo-6,6a,7,10,11,12-hexahydro-5H-6,12a-(epiminoethano)naphtho[2.1-g]quinoline-9-carbonyl)pyrrolidine-2-carboxamide] | – | – | – | – | 123 ± 6.15 nM | 84 ± 2.08% | 602 ± 173 nM | 68.3 ± 3.38% | –
11 | O=C(c1cc2c([nH]c1=O)C[C@]13CCN(CC4CC4)[C@H](Cc4ccc(O)cc41)[C@@H]3C2)N1CCCC1 [Compound 55, (6R,6aS,12R)-15-(cyclopropylmethyl)-2-hydroxy-9-(pyrrolidine-1-carbonyl)-6,6a,7,12-tetrahydro-5H-6,12a-(epiminoethano)naphtho[2.1-g]quinolin-10(11H)-one] | – | – | – | – | 0.79 ± 0.31 nM | 17.6 ± 0.68% | 0.33 ± 0.037 nM | 86 ± 2.68% | –
12 | O=C(c1ccccc1)c1cc2c([nH]c1=O)C[C@]13CCN(CC4CC4)[C@H](Cc4ccc(O)cc41)[C@]3(O)C2 [Compound 59, (6R,6aS,12R)-9-benzoyl-15-(cyclopropylmethyl)-2,6a-dihydroxy-6,6a,7,12-tetrahydro-5H-6,12a-(epiminoethano)naphtho[2.1-g]quinolin-10(11H)-one] | – | – | – | – | > 20000 nM | 2.5% | 17900 ± 7550 nM | 16.8 ± 1.44% | –
